This note sets out measurements from patent publication US9859508B2, “Condensed polycyclic aromatic compound and use thereof” (Nippon Kayaku Kabushiki Kaisha, priority 2013, dated 2018).

Data set [1] can be described thus: Cyclic voltammetry (CV) in dichloromethane. Format: physicochemical. As to conditions: n-BuN4PF6 0.1 M, silver/silver chloride reference electrode, 100 mV/sec. Here is the method: (3) Measurement of CV (Cyclic Voltammetry)
CV was measured using dichloromethane as a solvent, tetrabutylammonium hexafluorophosphate (n-BuN4PF6, 0.1 M) as a supporting salt, platinum wires as a working electrode and a counter electrode, and a silver/sliver chloride electrode as a reference electrode, and sweeping the electric potential at a rate of 100 mV/sec.

A short description of data set [2]: Solubility to chloroform (saturated chloroform solutions). Format: physicochemical. As to conditions: mass percent concentration of saturated chloroform solution. Here is the method: (1) Measurement of Solubility
Solubility was measured using chloroform as a solvent.

Molecules are shown by their SMILES.

Turning to `CCCCCCCCc1cc2c(cc(CCCCCCCC)c3cc(=C(C#N)C#N)sc32)c2sc(=C(C#N)C#N)cc12` [Compound 110], in data set [1], the “first half-wave reduction potential” value came out at 0.15 V and the “second half-wave reduction potential” value is on record as −0.14 V.
Turning to `CCCCCCCCCCCCc1cc2c(cc(CCCCCCCCCCCC)c3cc(=C(C#N)C#N)sc32)c2sc(=C(C#N)C#N)cc12` [Compound 112], the “Solubility to Chloroform” value in data set [2] is given as 0.20 w/w %. For the same compound, in data set [1], the “first half-wave reduction potential” value was determined as 0.15 V and the “second half-wave reduction potential” value was −0.14 V.
For the compound `CCCCCCCCCCCCCCCCc1cc2c(cc(CCCCCCCCCCCCCCCC)c3cc(=C(C#N)C#N)sc32)c2sc(=C(C#N)C#N)cc12` [Compound 114], in data set [1], the “first half-wave reduction potential” value is on record as 0.15 V and the “second half-wave reduction potential” value was −0.14 V.
`CCCCC(CC)Cc1cc2c(cc(CC(CC)CCCC)c3cc(=C(C#N)C#N)sc32)c2sc(=C(C#N)C#N)cc12` (stereo not shown) [Compound 119]: the “Solubility to Chloroform” value in data set [2] was determined as 0.53 w/w %. In data set [1], the “first half-wave reduction potential” value is reported as 0.15 V and the “second half-wave reduction potential” value was −0.14 V.
